Reference: article PMC11528066, “Noninvasive Monitoring of Programmed Death-Ligand 2 Expression with Positron Emission Tomography using ^68Ga-labeled Peptide Antagonist in Preclinical and Exploratory Human Studies” (Research, 2024)
Peptide text beside a SMILES is read from it. * marks the point of attachment. NOTA = O=C(O)CN1CCN(CC(=O)O)CCN(CC(=O)*)CC1; AEEEA = NCCOCCOCCOCC(=O)O

What was measured:
[1] = test system: A549 tumor xenograft models; experiment: Dynamic micro-PET imaging in A549 xenografts; format: in vivo, BALB/C nude mice; settings: each time point 10 to 60 min, n = 3
Method: (§1) Micro-PET imaging was conducted using an Inveon PET scanner (Siemens, Germany). Dynamic PET examine were acquired over the first 60 min following the simultaneous injection of 7.4 to 9.25 MBq (200 to 250 μCi) of [^68Ga]Ga-HN11-1 and [^68Ga]Ga-HN11-2. After reconstructing the images and delineating the regions of interest (ROIs), time-radioactivity curves were plotted to obtain the Tumor/Muscle (T/M) ratios. %ID/g represents the percentage of the injected dose of the radiotracer that accumulates in a specific tissue per gram of tissue weight. For the biodistribution study, the xenograft models received an intravenous injection of 3.7 to 5.5 MBq (100 to 150 μCi) of [^68Ga]Ga-HN11-1. After the designated period (10, 30, 60, and 90 min), the mice were euthanized, and important tissues and organs were dissected and collected. The samples were counted using the γ-counter for determining the %ID/g, presented as mean ± standard deviation (SD).
A549 cell lines were provided by the China Center for Type Culture Collection (CCTCC) and cultured in RPMI-1640 medium supplemented with 10 % fetal bovine serum and 100 U/mL penicillin-streptomycin. The lentivirus system was implemented to introduce PD-L2 (PDCD1LG2) over-expressed cDNA into the A549 cells. […] Transfection efficiency was identified by WB and real-time quantitative PCR. […]

A549-PD-L2 cell lines = experiment: Cell uptake assay; format: cell-based; settings: A549-PD-L2 cells, n = 5; for cell uptake rate: mean ± SD
Method: Cell uptake assays were conducted to measure the uptake of [^68Ga]Ga-HN11-1 and [^68Ga]Ga-HN11-2 in A549 and A459-PD-L2 cell lines following incubation periods of 15, 30, 60, and 90 min. Blocking studies were performed by coincubating cells with an excess of precursor (HN11-1 / HN11-2), and then the cell uptakes of [^68Ga]Ga-HN11-1 and [^68Ga]Ga-HN11-2 were performed in A459-PD-L2 cell lines after 60 min of incubation. The experiment details are provided in the SI.
All tumor cells (1 × 10^6 per well) were seeded in two 24 - well plates, incubated for 24 h and then added with […] of [^68Ga]Ga-HN11-1 or [^68Ga]Ga-HN11-2 per well. After 15, 30, 60 and 90 min of uptake, the cells were separated from the medium, washed with 500 μL of cold PBS for three times and dissolved with 1 M NaOH. At different time points, these cells were collected and counted by using a γ-counter (WIZARD 2480, Pekin Elmer). For in vitro blocking experiments, cells were co-incubated with 10 μg of cold HN11-1 or HN11-2 precursor. After incubation, the cells were washed, collected and measured with a γ-counter, either. The IC50 values of [^68Ga]Ga-HN11-1 or [^68Ga]Ga-HN11-2 were determined using GraphPad Prism 8.0.2 software, respectively.

[2] = test system: A549-PD-L2 xenograft models; experiment: Static PET/CT imaging with blocking; format: in vivo, BALB/C nude mice; settings: 60 min, pretreatment i.v. with excess HN11-1 / HN11-2 (10 mg/kg), n = 3
Method: The static PET/CT imaging in A549 and A549-PD-L2 xenograft models after injection of 5.55 to 7.4 MBq (150 to 200 μCi) of [^68Ga]Ga-HN11-1 or [^68Ga]Ga-HN11-2 were acquired at 60 min. In the [^68Ga]Ga-HN11-1 + block or [^68Ga]Ga-HN11-2 + block groups, the xenograft models underwent pretreatment via intravenous injection of HN11-1 or HN-2 (10 mg/kg) before PET/CT imaging. Then, ROIs were delineated for each group. After imaging, tumor tissues from both the A549 and A459-PD-L2 xenograft tumors were extracted, and the PD-L2 expression was tested by IHC. For the pharmacokinetics study, healthy BALB/C mouse received an intravenous injection of 5.55 MBq (150 μCi) of [^68Ga]Ga-HN11-1 and [^68Ga]Ga-HN11-2. Measure the activity of blood samples (%ID/g, mean ± SD) at the corresponding time points, and the time-activity curve was plotted. Subsequently, pharmacokinetic parameters were tested using the noncompartmental model in Phoenix WinNonlin 8.1 software (Certara, USA).

[3] = In vitro stability in serum (radio-HPLC); format: in vitro ADME; settings: room temperature, over 4 h (0.5, 1, 2, 4 h), 3.74 MBq, read-out: in vitro stability in serum (radiochemical purity)
Method: (§2) The in vitro stability of [^68Ga]Ga-HN11-1 and [^68Ga]Ga-HN11-2 (3.74 MBq) in saline and serum was tested by radio-HPLC analysis of its radiochemical purity after incubation at room temperature for 0.5 , 1 , 2 and 4 h.

[4] = test system: A549-PD-L2 tumor xenograft models; experiment: Dynamic micro-PET imaging in A549-PD-L2 xenografts; format: in vivo, BALB/C nude mice; settings: n = 3
Method: as §1
A549 cell lines were provided by the China Center for Type Culture Collection (CCTCC) and cultured in RPMI-1640 medium supplemented with 10 % fetal bovine serum and 100 U/mL penicillin-streptomycin. The lentivirus system was implemented to introduce PD-L2 (PDCD1LG2) over-expressed cDNA into the A549 cells. The viral vectors were produced in 293T cells and co-transfected with the psAX2, pMD2G and PD-L2 plasmids. A549 cells transduced with the vectors were selectively grown in 1.6 μg/mL puromycin. Transfection efficiency was identified by WB and real-time quantitative PCR. All the cells were cultured in an incubator at 37° C with 5 % CO2 atmosphere. A549 and A549-PD-L2 cells (5 × 10^6, 200 μL)were subcutaneously implanted into the right shoulder of BALB/C nude mice (male, 4-6 weeks), respectively. When the tumors reached to 5 - 8 mm in diameter, the mice were subjected to in vivo and ex vivo studies. All the mice were purchased from the Laboratory Animal Center of Central South University.

[5] = Partition coefficient (log P), 1-octanol/PBS; format: physicochemical; settings: shake-flask 3 mL 1-octanol / 3 mL PBS pH 7.4, vortex 10 min, centrifugation 10,000 rpm 10 min, γ-counter, mean ± SD, n = 5
Method: The partition coefficients were assessed using the method described previously. [^68Ga]Ga-HN11-1 and [^68Ga]Ga-HN11-2 was respectively introduced into a mixture comprising 3 mL of 1-octanol and 3 mL of phosphate-buffered saline (PBS) with a pH of 7.4. Following vortexing for 10 minutes and subsequent centrifugation at 10,000 rpm for 10 minutes, samples were taken from both layers and counted using a γ-counter. The log P was determined using the formula: log P = log([M]oct/[M]aq). All measurements were conducted using 5 independent samples and are presented as mean ± standard deviation (SD).

[6] = In vitro stability in saline (radio-HPLC); format: physicochemical; settings: room temperature, over 4 h (0.5, 1, 2, 4 h), 3.74 MBq
Method: as §2

- remaining at 4 h [3]: > 95%
- logD [5]: -0.3 ± 0.0017
- in vitro stability in saline (radiochemical purity) [6]: > 95%
SMILES: CC[C@H](C)[C@H](NC(=O)[C@H](CCCNC(=N)N)NC(=O)CNC(=O)[C@H](CCC(=O)O)NC(=O)[C@H](CC(N)=O)NC(=O)[C@H](Cc1ccc(O)cc1)NC(=O)[C@H](CCCNC(=N)N)NC(=O)[C@H](Cc1ccc(O)cc1)NC(=O)[C@H](Cc1c[nH]cn1)NC(=O)COCCOCCOCCNC(=O)CN1CCN(CC(=O)O)CCN(CC(=O)O)CC1)C(=O)N[C@@H](CCCNC(=N)N)C(=O)N[C@@H](CC(N)=O)C(=O)O [[^68Ga]Ga-HN11-1, metal not drawn] ({NOTA-AEEEA}-HYRYNEGRIRN-OH)
- tumor uptake in A549 tumor xenograft models [1]: almost negligible
- cell uptake rate (A549-PD-L2 cell lines; 30 min incubation, γ-counter): 4.51 ± 0.04%
- cell uptake, block group (A549-PD-L2 cell lines; 60 min, with excess (10 μg) of cold HN11-1 / HN11-2 precursor): 1.43 ± 0.13%
- cell uptake rate (A549-PD-L2 cell lines; 60 min incubation): 4.87 ± 0.28%
- tumor uptake after blocking [2]: 0.74 ± 0.03 %ID/g
- tumor uptake ([4]; 10 min after injection): 2.61 ± 0.16 %ID/g
- tumor uptake ([4]; 20 min after injection): 2.97 ± 0.18 %ID/g
- tumor uptake ([4]; 30 min after injection): 3.36 ± 0.29 %ID/g
- tumor uptake ([4]; 40 min after injection): 3.22 ± 0.23 %ID/g
- tumor uptake ([4]; 50 min after injection): 3.06 ± 0.36 %ID/g
- tumor uptake ([4]; 60 min after injection): 2.76 ± 0.42 %ID/g
